Like-named read-outs stand apart in the source and are kept apart here.
How the values were obtained:
[1] = DPPH radical scavenging bioassay; format: biochemical; settings: for radical scavenging activity, DPPH assay: compound 1 mM in MeOH, read after 0.5 h at 517 nm; for IC50: concentration decreasing absorbance by 50%
Source text: The antioxidant activity was estimated by ABTS and DPPH bioassays, according to the reported literature method. More details are in the Supplementary Materials.
Recently, OSe compounds were thoroughly used as redox modulators to control many complicated diseases (e.g., cancer and neurodegenerative diseases). The DPPH and ABTS bioassays were extensively used as rapid tools for estimating the antioxidant potency of OSe compounds [50, 51]. Ascorbic acid was used as a standard control, and the antioxidant potency was measured by the ability of the compounds to decolorize the characteristic colors of the ABTS^. and DPPH^. radicals by following the colorimetric decline in absorbance at 734 and 517 nm, respectively (Figure 2).
Figure 2 Evaluation of the antioxidant properties of the OSe compounds employing the ABTS and DPPH assays. All measurements are mean ± SD. In the DPPH assay: absorbance was read after 0.5 h of mixing […] of DPPH with […] of OSe compounds (1 mM, MeOH) at 517 nm. In the ABTS assay: […] of each OSe compound (1 mM, phosphate-buffered methanol) was mixed with the ABTS solution (60 mM), and absorbance was monitored at 734 nm. […]
1.1.1. The antioxidant activity
The hydrogen atom or electron donation ability of the corresponding compounds was measured by estimating the bleaching of the purple color of a methanolic solution of DPPH [29]. This spectrophotometric assay uses stable DPPH. reagent. The sample was prepared by adding […] of the OSe compounds (1 mM in methanol) to […] DPPH in methanol. After 30 min of incubation in the dark, the absorbance was read against a blank at 517 nm. Ascorbic acid (vitamin C) and ebselen were used as standard antioxi-dants (positive control). A blank sample was run without DPPH. A negative control sam-ple was run using methanol instead of the sample. The radical scavenging activity was calculated using the following equation:
(§1) Inhibition%= (Ablank-Asample)/(Ablank)*100. (1)

Escherichia coli = experiment: Agar diffusion assay, E. coli; format: cell-based; set-up: E. coli A% (activity index): concentration or dose not given beside the values; settings: for E. coli A% (activity index): zone of test compound / zone of standard (ampicillin) x 100; for zone of inhibition at 20 µM: Escherichia coli, read-out: E. coli IZD (mm)
WI-38 cells = experiment: cells; format: cell-based, human; settings: MTT, 24 h incubation, normal WI-38 cells, read-out: WI38 IC50
Experimental: (§2) Cells were obtained from the ATCC Company (VACSERA), Cairo, Egypt. MTT assay were performed according to the literature method. More details are in the Supporting Information.
(§3) Recently, OSe compounds gained much attention as possible drug candidates due to their various pharmacological properties. […] Therefore, the anticancer attributes of the newly prepared OSe compounds were estimated using the MTT assay against MCF-7 and HepG2 and compared with their respective cytotoxicity in WI-38 primary cells. The anthracycline drug doxorubicin was used as the standard. […] Moreover, the therapeutic index (TI) was also calculated (according to Equation (1)), which is considered a measure of the selectivity and safety of the synthesized compounds. (1) TI=IC50 for the normal WI38 cells/IC50 for the cancer cells […]
(§4) 1.1. The biological assays
(§5) 1.1.1. The anticancer activity
(§6) The breast adenocarcinoma (MCF-7), Hepatocellular carcinoma (HEPG-2), and nor-mal fibroblast (WI-38) cells were obtained from ATCC via Holding company for biological products and vaccines (VACSERA), Cairo, Egypt.
(§7) DMSO, and fetal bovine serum was obtained from Sigma Aldrich. Dulbecco’s modified Eagle’s medium was used as the culture medium for the cells, and the cytotoxicity was evaluated using the reported MTT assay. Doxorubicin was used as the positive reference, and the IC50 values were obtained from the corresponding dose-response curve.
(§8) This colorimetric assay is based on converting the yellow tetrazolium bromide (MTT) to a purple formazan derivative by mitochondrial succinate dehydrogenase in viable cells. […]
(§9) added were 100 units/ml penicillin and 100µg/ml streptomycin at 37 C in a 5% Co2 incu-bator. The cell lines were seeded in a 96-well plate at a density of 1.0x10^4 cells/well. at 37 C for 48 h under 5% Co2. After incubation, the cells were treated with different concentra-tions of compounds and incubated for 24 h. After 24 h of drug treatment, 20 µl of MTT solution at 5mg/ml was added and incubated for 4 h. Finally, dimethyl sulfoxide (DMSO) in the volume of 100 µl is added to each well to dissolve the purple formazan formed. The colorimetric assay is measured and recorded at an absorbance of 570 nm using a plate […]
(§10) The percentage of the relative cell viability was calculated as (A570 of treated samples/A570 of the untreated sample) X 100. […]

MCF-7 cells = experiment: cells; format: cell-based, human; settings: for IC50: MTT, 24 h incubation, MCF-7 cells, read-out: MCF7 IC50; for MCF7 TI (IC50 WI-38 / IC50 MCF-7): therapeutic index, ratio of WI-38 IC50 to MCF-7 IC50
Experimental: as §2, §3, §4, §5, §6, §7, §8, §9, §10

Staphylococcus aureus = experiment: Agar diffusion assay, S. aureus; format: cell-based; set-up: S. aureus A% (activity index): concentration or dose not given beside the values; settings: for S. aureus A% (activity index): zone of test compound / zone of standard (ampicillin) x 100; for zone of inhibition at 20 µM: Staphylococcus aureus, read-out: S. aureus IZD (mm)
Experimental: The antimicrobial activities of the OSe compounds were evaluated against C. albicans yeast, as well as E. coli and S. bacteria, employing the agar well diffusion assay. Furthermore, the MICs (in µM) were determined by the microdilution method according to the reported protocol. More details are in the Supporting Information.
Compounds were evaluated for their antimicrobial activity against the Gram-negative bacteria Escherichia coli (E. coli) and the Gram-positive bacteria Staphylococcus aureus (S. aureus), as well as the Candida albicans (C. albicans) fungal strain, using the agar diffusion assay. Ampicillin and clotrimazole were used as standards. Indeed, the antimicrobial properties of the OSe compounds were also obtained from the activity index percentage (A%) according to Equation (2). (2) A%=Zone of inhibition by test compound diametre/Zone of inhibition by standard diametre×100 . […]
1.1.1. The antimicrobial activity
The antimicrobial activities of the OSe compounds were evaluated against C. albicans yeast as well as E. coli gram-negative and S. aureus gram-positive bacteria employing the agar well diffusion assay. Briefly, a concentration of 1 mM was prepared for each compound by dissolving in DMSO. Paper discs of standard size […] were steri-lized in an autoclave and soaked in 20 µL of the test compounds, and placed in the Petri dishes, which in turn contain a nutrient media (agar 20 g, peptone 5 g, and beef extract 3 g) seeded with the dedicated strain. Incubation lasted for 24 h at 36
Furthermore, the MICs (in µM) were determined by the microdilution method according to the reported protocol. […]
as §1

[2] = inhibition zone diameter, six-mm disks soaked with 20 μM of compound

Row | Compound | radical scavenging activity, DPPH assay [1] | IC50 [1] | E. coli IZD (mm) (Escherichia coli; [2]) | E. coli A% (activity index) (Escherichia coli) | IC50 (WI-38 cells) | IC50 (MCF-7 cells) | MCF7 TI (IC50 WI-38 / IC50 MCF-7) (MCF-7 cells) | S. aureus IZD (mm) (Staphylococcus aureus; [2]) | S. aureus A% (activity index) (Staphylococcus aureus) | zone of inhibition at 20 µM (Escherichia coli; [2]) | IC50 (WI-38 cells; Homo sapiens) | IC50 (MCF-7 cells; Homo sapiens, MCF7) | zone of inhibition at 20 µM (Staphylococcus aureus; [2])
1 | 2-((4-(2-(3-hydroxynaphthalen-1(4H)-ylidene)hydrazinyl)phenyl)selanyl)-N-phenylacetamide [Compound 9] | 93% | 20.64 ± 0.14 µM | 20 mm | 87% | 39.3 ± 2.5 µM | 3.27 ± 0.2 µM | 12 | 19 mm | 91% | – | – | – | –
2 | Nc1ccc([Se]CC(=O)Nc2ccccc2)cc1 [Compound 4, 2-((4-aminophenyl)selanyl)-N-phenylacetamide] | 80% | – | – | 61% | – | – | 4.6 | – | 71% | 14 mm | 52.3 ± 3 µM | 11.3 ± 0.8 µM | 15 mm
3 | CCOc1ccc(NC(=O)C[Se]c2ccc(N)cc2)cc1 [Compound 5, 2-((4-aminophenyl)selanyl)-N-(4-ethoxyphenyl)acetamide] | 71% | – | – | 44% | – | – | 4 | – | 57% | 10 mm | > 100 µM | 25.5 ± 2 µM | 12 mm
4 | Nc1ccc([Se]CC(=O)N[C@@H](Cc2c[nH]c3ccccc23)C(=O)O)cc1 [Compound 6, (2-((4-aminophenyl)selanyl)acetyl)tryptophan] | 91% | 24.03 ± 0.23 µM | – | 74% | – | – | 5 | – | 86% | 17 mm | 28.4 ± 2.2 µM | 5.69 ± 0.4 µM | 18 mm
5 | O=C(O)CCC(=O)Nc1ccc([Se]CC(=O)Nc2ccccc2)cc1 [Compound 11, 4-oxo-4-((4-((2-oxo-2-(phenylamino)ethyl)selanyl)phenyl)amino)butanoic acid] | 76% | – | – | 52% | – | – | 3.2 | – | 62% | 12 mm | 67.3 ± 3.9 µM | 21.2 ± 1.8 µM | 13 mm
6 | O=C(C[Se]c1ccc(N2C(=O)CCC2=O)cc1)Nc1ccccc1 [Compound 14, 2-((4-(2,5-dioxopyrrolidin-1-yl)phenyl)selanyl)-N-phenylacetamide] | 77% | – | – | 57% | – | – | 3.6 | – | 67% | 13 mm | 62 ± 3.6 µM | 17.1 ± 1.4 µM | 14 mm
7 | C[Se]c1ccc(NC(=O)C=CC(=O)O)cc1 [Compound 15, 4-((4-(methylselanyl)phenyl)amino)-4-oxobut-2-enoic acid] | 87% | – | – | 65% | – | – | 2.8 | – | 71% | 15 mm | 19.8 ± 1.5 µM | 7.03 ± 0.6 µM | 15 mm
8 | C[Se]c1ccc(NC(=O)CCC(=O)O)cc1 [Compound 16, 4-((4-(methylselanyl)phenyl)amino)-4-oxobutanoic acid] | 67% | – | – | – | – | – | 0.7 | – | 43% | 10 mm | 22.5 ± 1.9 µM | 29.5 ± 2.2 µM | –

Reference: PMC9312238, “Novel Organoselenium Redox Modulators with Potential Anticancer, Antimicrobial, and Antioxidant Activities” (Antioxidants, 2022)
